Source: patent EP4494656A1 (priority 2023, dated 2025)
Numbered stars: 1 amine (or outer) side, 2 acyl side, 3 side chain; on linkers, the order of the positions; unused ones are H or OH. Bridge positions count the residues as written; N and C are the ends. Square brackets hold non-standard residues; d marks the D form. Peptide text beside a SMILES is read from it. * marks the point of attachment. Adda = CO[C@@H](Cc1ccccc1)[C@@H](C)/C=C(C)/C=C/[C@H](N[*:1])[C@H](C)C(=O)[*:2]; dAsp(3S-Me) = C[C@H](C(=O)[*:3])[C@@H](N[*:1])C(=O)[*:2]; d(γGlu) = O=C(O)[C@@H](CCC(=O)[*:2])N[*:1]; NMeDha = C=C(NC)C(=O)O; Propargyl = C#CC*

Legend:
[1] = target: type 1 protein phosphatase; conditions: cited from earlier work
[2] = target: type 2A protein phosphatase; conditions: cited from earlier work
OATP1B1 = test: in vitro; conditions: human
OATP1B3 = test: in vitro; conditions: human
[3] = target: protein phosphatase-1 catalytic subunit (a-Isoform from rabbit, Sigma-Aldrich) (Oryctolagus cuniculus, UniProt P62139)
protein phosphatase-1 catalytic subunit (a-Isoform from rabbit, Sigma-Aldrich), sequence (P62139 whole entry, looked up, canonical isoform): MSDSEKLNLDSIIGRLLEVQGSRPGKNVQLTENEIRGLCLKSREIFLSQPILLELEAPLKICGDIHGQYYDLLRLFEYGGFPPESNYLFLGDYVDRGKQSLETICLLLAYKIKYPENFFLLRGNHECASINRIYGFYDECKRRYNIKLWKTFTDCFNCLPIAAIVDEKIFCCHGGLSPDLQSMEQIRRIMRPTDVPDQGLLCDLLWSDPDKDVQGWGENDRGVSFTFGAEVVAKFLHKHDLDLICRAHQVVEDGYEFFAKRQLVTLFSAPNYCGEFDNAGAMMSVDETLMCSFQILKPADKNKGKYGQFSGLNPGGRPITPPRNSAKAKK

| Compound | Ratio of IC50_OATP1B1/ IC50_PPI (HEK293 OATP1B1+) | IC50 (HEK293 OATP1B1+; read-out: IC50_OATP1B1 ± SE) [nM] | Ratio of IC50_OATP1B3/ IC50_PPI (HEK293 OATP1B3+) | IC50 (HEK293 OATP1B3+; read-out: IC50_OATP1B3 ± SE) [nM] | IC50 [1] [nM] | IC50 [2] [nM] | IC50 (OATP1B1) [nM] | IC50 (OATP1B3) [nM] | increase of IC50_OATP1B1 compared to the corresponding MC-PrgTyr-Arg monomer (HEK293 OATP1B1+) | increase of IC50_OATP1B1 in comparison to MC-LR (HEK293 OATP1B1+) | increase of IC50_OATP1B3 compared to the MC-PrgTyr-Arg monomer (HEK293 OATP1B3+) [fold] | increase of IC50_OATP1B3 in comparison to MC-LR (HEK293 OATP1B3+) [fold] | lower IC50_PPI compared to the IC50_PPI of the MC-LR reference cytotoxin [3] | lower IC50_PPI compared to the IC50_PPI of the corresponding MC-PrgTyr-Arg monomer [3] |
| --- | --- | --- | --- | --- | --- | --- | --- | --- | --- | --- | --- | --- | --- | --- |
| C=C1C(=O)N[C@H](C)C(=O)N[C@@H](CC(C)C)C(=O)N[C@@H](C(=O)O)[C@H](C)C(=O)N[C@@H](CCCNC(=N)N)C(=O)N[C@@H](/C=C/C(C)=C/[C@H](C)[C@H](Cc2ccccc2)OC)[C@H](C)C(=O)N[C@@H](C(=O)O)CCC(=O)N1C [MC-LR, microcystin-LR, reference compound] (R[Adda][d(γGlu)][NMeDha][dA]L[dAsp(3S-Me)]-OH; lactam N-7) | 6.3 | 17.1 ± 2.1 | 2.9 | 7.9 ± 1.7 | 0.03 | 0.04 | – | – | – | – | – | – | – | – |
| C#CCOc1ccc(C[C@@H]2NC(=O)[C@@H](C)NC(=O)C(=C)N(C)C(=O)CC[C@H](C(=O)O)NC(=O)[C@@H](C)[C@H](/C=C/C(C)=C/[C@H](C)[C@H](Cc3ccccc3)OC)NC(=O)[C@H](CCCNC(=N)N)NC(=O)[C@@H](C)[C@H](C(=O)O)NC2=O)cc1 [MC-PrgTyr-Arg, cyclo(D-Ala-PrgTyr-D-MeAsp-Arg-Adda-D-Glu-Mdha), reference compound] (R[Adda][d(γGlu)][NMeDha][dA]Y(Propargyl)[dAsp(3S-Me)]-OH; lactam N-7) | – | – | – | – | – | – | 82.2 ± 4.5 | 40.4 ± 36.6 | – | – | – | – | – | – |
| C=C1C(=O)N[C@H](C)C(=O)N[C@@H](Cc2ccc(OCc3cn(CC(=O)N4CCN(C(=O)Cn5cc(COc6ccc(C[C@@H]7NC(=O)[C@@H](C)NC(=O)C(=C)N(C)C(=O)CC[C@H](C(=O)O)NC(=O)[C@@H](C)[C@H](/C=C/C(C)=C/[C@H](C)[C@H](Cc8ccccc8)OC)NC(=O)[C@H](CCCNC(=N)N)NC(=O)[C@@H](C)[C@H](C(=O)O)NC7=O)cc6)nn5)CC4)nn3)cc2)C(=O)N[C@@H](C(=O)O)[C@H](C)C(=O)N[C@@H](CCCNC(=N)N)C(=O)N[C@@H](/C=C/C(C)=C/[C@H](C)[C@H](Cc2ccccc2)OC)[C@H](C)C(=O)N[C@@H](C(=O)O)CCC(=O)N1C [MC-PrgTyr-Arg-Dimer-1] | – | – | – | – | – | – | 2000 ± 711 | 1060 ± 302 | 24 fold | more than 116 fold | 26 | 134 | about 10 fold | more than 20 fold |
| C=C1C(=O)N[C@H](C)C(=O)N[C@@H](Cc2ccc(OCc3cn(CC(=O)N4CCN(C(=O)[C@H](CCCCN)n5cc(COc6ccc(C[C@@H]7NC(=O)[C@@H](C)NC(=O)C(=C)N(C)C(=O)CC[C@H](C(=O)O)NC(=O)[C@@H](C)[C@H](/C=C/C(C)=C/[C@H](C)[C@H](Cc8ccccc8)OC)NC(=O)[C@H](CCCNC(=N)N)NC(=O)[C@@H](C)[C@H](C(=O)O)NC7=O)cc6)nn5)CC4)nn3)cc2)C(=O)N[C@@H](C(=O)O)[C@H](C)C(=O)N[C@@H](CCCNC(=N)N)C(=O)N[C@@H](/C=C/C(C)=C/[C@H](C)[C@H](Cc2ccccc2)OC)[C@H](C)C(=O)N[C@@H](C(=O)O)CCC(=O)N1C [MC-PrgTyr-Arg-Dimer-2] | – | – | – | – | – | – | > 3000 | 1850 ± 309 | more than 36 fold | more than 175 fold | 45 | 234 | about 16 fold | more than 50 fold |
